# Measured values: ChEMBL document CHEMBL4507289, “Data for DCP probe GSM1” (2021)
# The source made the active and inactive calls. The rule behind the calls is not given here.
# How the values were obtained:
# [1] = target: Amyloid-beta precursor protein (Homo sapiens, UniProt P05067); assay: Aβ40 inhibition assay
# [2] = system: Tyrosine-protein kinase ABL1 (Homo sapiens), P00519 [E255K]; settings: Compound concentration 1000.0 nM
# [3] = target: RAC-alpha serine/threonine-protein kinase (Homo sapiens) (UniProt P31749); settings: Compound concentration 1000.0 nM
# [4] = target: Ankyrin repeat and protein kinase domain-containing protein 1 (Homo sapiens) (UniProt Q8NFD2); settings: Compound concentration 1000.0 nM
# [5] = system: Serine/threonine-protein kinase B-raf (Homo sapiens), P15056 [V600E]; settings: Compound concentration 1000.0 nM
# [6] = target: Serine/threonine-protein kinase BRSK1 (Homo sapiens) (UniProt Q8TDC3); settings: Compound concentration 1000.0 nM
# [7] = target: Serine/threonine-protein kinase BRSK2 (Homo sapiens) (UniProt Q8IWQ3); settings: Compound concentration 1000.0 nM
# [8] = target: Peripheral plasma membrane protein CASK (Homo sapiens) (UniProt O14936); settings: Compound concentration 1000.0 nM
# [9] = target: Cyclin-dependent kinase 2 (Homo sapiens) (UniProt P24941); settings: Compound concentration 1000.0 nM
# [10] = target: Cyclin-dependent kinase 4 (Homo sapiens) (UniProt P11802); settings: Compound concentration 1000.0 nM
# [11] = target: Death-associated protein kinase 2 (Homo sapiens) (UniProt Q9UIK4); settings: Compound concentration 1000.0 nM
# [12] = target: Mitogen-activated protein kinase kinase kinase 12 (Homo sapiens) (UniProt Q12852); settings: Compound concentration 1000.0 nM
# [13] = target: Eukaryotic translation initiation factor 2-alpha kinase 1 (Homo sapiens) (UniProt Q9BQI3); settings: Compound concentration 1000.0 nM
# [14] = target: Ephrin type-B receptor 6 (Homo sapiens) (UniProt O15197); settings: Compound concentration 1000.0 nM
# [15] = target: Receptor tyrosine-protein kinase erbB-4 (Homo sapiens) (UniProt Q15303); settings: Compound concentration 1000.0 nM
# [16] = target: Fibroblast growth factor receptor 1 (Homo sapiens) (UniProt P11362); settings: Compound concentration 1000.0 nM
# [17] = target: Vascular endothelial growth factor receptor 1 (Homo sapiens) (UniProt P17948); settings: Compound concentration 1000.0 nM
# [18] = target: Receptor-type tyrosine-protein kinase FLT3 (Homo sapiens) (UniProt P36888); settings: Compound concentration 1000.0 nM
# [19] = system: Receptor-type tyrosine-protein kinase FLT3 (Homo sapiens), P36888 [UNDEFINED MUTATION]; settings: Compound concentration 1000.0 nM
# [20] = target: Rhodopsin kinase GRK1 (Homo sapiens) (UniProt Q15835); settings: Compound concentration 1000.0 nM
# [21] = target: Glycogen synthase kinase-3 alpha (Homo sapiens) (UniProt P49840); settings: Compound concentration 1000.0 nM
# [22] = target: Homeodomain-interacting protein kinase 2 (Homo sapiens) (UniProt Q9H2X6); settings: Compound concentration 1000.0 nM
# [23] = target: Homeodomain-interacting protein kinase 4 (Homo sapiens) (UniProt Q8NE63); settings: Compound concentration 1000.0 nM
# [24] = target: Tyrosine-protein kinase JAK1 (Homo sapiens) (UniProt P23458); settings: Compound concentration 1000.0 nM
# [25] = target: Mast/stem cell growth factor receptor Kit (Homo sapiens) (UniProt P10721); settings: Compound concentration 1000.0 nM
# [26] = system: Mast/stem cell growth factor receptor Kit (Homo sapiens), P10721 [V559D]; settings: Compound concentration 1000.0 nM
# [27] = system: Mast/stem cell growth factor receptor Kit (Homo sapiens), P10721 [V559D,T670I]; settings: Compound concentration 1000.0 nM
# [28] = target: Serine/threonine-protein kinase STK11 (Homo sapiens) (UniProt Q15831); settings: Compound concentration 1000.0 nM
# [29] = target: Leukocyte tyrosine kinase receptor (Homo sapiens) (UniProt P29376); settings: Compound concentration 1000.0 nM
# [30] = target: MAP/microtubule affinity-regulating kinase 3 (Homo sapiens) (UniProt P27448); settings: Compound concentration 1000.0 nM
# [31] = target: Tyrosine-protein kinase Mer (Homo sapiens) (UniProt Q12866); settings: Compound concentration 1000.0 nM
# [32] = target: Mitogen-activated protein kinase kinase kinase 11 (Homo sapiens) (UniProt Q16584); settings: Compound concentration 1000.0 nM
# [33] = target: Serine/threonine-protein kinase 4 (Homo sapiens) (UniProt Q13043); settings: Compound concentration 1000.0 nM
# [34] = target: Mitogen-activated protein kinase 11 (Homo sapiens) (UniProt Q15759); settings: Compound concentration 1000.0 nM
# [35] = target: Platelet-derived growth factor receptor beta (Homo sapiens) (UniProt P09619); settings: Compound concentration 1000.0 nM
# [36] = target: Phosphatidylinositol 3-kinase C2 domain-containing subunit gamma (Homo sapiens) (UniProt O75747); settings: Compound concentration 1000.0 nM
# [37] = target: Serine/threonine-protein kinase N1 (Homo sapiens) (UniProt Q16512); settings: Compound concentration 1000.0 nM
# [38] = target: Serine/threonine-protein kinase PLK3 (Homo sapiens) (UniProt Q9H4B4); settings: Compound concentration 1000.0 nM
# [39] = target: cGMP-dependent protein kinase 2 (Homo sapiens) (UniProt Q13237); settings: Compound concentration 1000.0 nM
# [40] = target: Ribosomal protein S6 kinase alpha-4 (Homo sapiens) (UniProt O75676); settings: Compound concentration 1000.0 nM
# [41] = target: Ribosomal protein S6 kinase alpha-4 (Homo sapiens) (UniProt O75676); settings: Compound concentration 1000.0 nM; remark: listed apart in the source
# [42] = target: Tyrosine-protein kinase TXK (Homo sapiens) (UniProt P42681); settings: Compound concentration 1000.0 nM
# [43] = target: Mitogen-activated protein kinase kinase kinase 20 (Homo sapiens) (UniProt Q9NYL2); settings: Compound concentration 1000.0 nM
# [44] = target: Kappa-type opioid receptor (Homo sapiens) (UniProt P41145); settings: Compound concentration 10.0 uM
# [45] = target: Alpha-2C adrenergic receptor (Homo sapiens) (UniProt P18825); settings: Compound concentration 10.0 uM
# Chain of Ribosomal protein S6 kinase alpha-4 (Homo sapiens) (O75676 whole entry, looked up): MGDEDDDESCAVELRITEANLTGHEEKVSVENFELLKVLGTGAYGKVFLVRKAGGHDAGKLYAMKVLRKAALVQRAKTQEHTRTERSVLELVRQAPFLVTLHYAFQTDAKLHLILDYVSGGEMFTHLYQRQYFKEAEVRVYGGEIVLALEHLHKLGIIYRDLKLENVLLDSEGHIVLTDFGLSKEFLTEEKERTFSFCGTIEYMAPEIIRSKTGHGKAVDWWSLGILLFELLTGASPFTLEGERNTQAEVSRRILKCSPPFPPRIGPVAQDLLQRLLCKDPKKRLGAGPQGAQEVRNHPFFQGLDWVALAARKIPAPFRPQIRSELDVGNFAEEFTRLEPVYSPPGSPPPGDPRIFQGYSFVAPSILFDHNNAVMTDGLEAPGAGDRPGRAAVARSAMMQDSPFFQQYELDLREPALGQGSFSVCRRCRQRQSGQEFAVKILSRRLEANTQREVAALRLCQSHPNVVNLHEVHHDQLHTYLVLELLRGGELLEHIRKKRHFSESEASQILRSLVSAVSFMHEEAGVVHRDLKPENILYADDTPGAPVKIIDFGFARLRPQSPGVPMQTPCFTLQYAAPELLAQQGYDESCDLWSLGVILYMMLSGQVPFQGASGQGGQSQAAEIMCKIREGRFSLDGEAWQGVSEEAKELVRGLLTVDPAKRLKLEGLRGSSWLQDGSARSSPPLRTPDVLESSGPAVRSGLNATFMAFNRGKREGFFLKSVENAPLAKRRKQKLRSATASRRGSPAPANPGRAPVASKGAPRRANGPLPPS
# Chain of Serine/threonine-protein kinase 4 (Homo sapiens) (Q13043 whole entry): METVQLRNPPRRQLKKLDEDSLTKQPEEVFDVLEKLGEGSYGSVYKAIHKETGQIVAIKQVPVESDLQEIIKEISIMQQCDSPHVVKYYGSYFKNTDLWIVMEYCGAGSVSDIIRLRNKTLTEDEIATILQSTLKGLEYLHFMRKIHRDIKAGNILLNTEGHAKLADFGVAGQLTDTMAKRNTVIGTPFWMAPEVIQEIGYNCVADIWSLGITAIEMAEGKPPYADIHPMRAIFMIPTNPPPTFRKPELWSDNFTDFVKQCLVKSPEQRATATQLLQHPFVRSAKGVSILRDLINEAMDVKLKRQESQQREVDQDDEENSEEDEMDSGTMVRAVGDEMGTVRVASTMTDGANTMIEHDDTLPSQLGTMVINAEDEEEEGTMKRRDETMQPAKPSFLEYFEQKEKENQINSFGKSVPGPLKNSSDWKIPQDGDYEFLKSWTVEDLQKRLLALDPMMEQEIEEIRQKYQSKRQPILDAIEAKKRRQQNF
# Chain of Mast/stem cell growth factor receptor Kit (Homo sapiens), P10721 [V559D] (P10721 whole entry V559D): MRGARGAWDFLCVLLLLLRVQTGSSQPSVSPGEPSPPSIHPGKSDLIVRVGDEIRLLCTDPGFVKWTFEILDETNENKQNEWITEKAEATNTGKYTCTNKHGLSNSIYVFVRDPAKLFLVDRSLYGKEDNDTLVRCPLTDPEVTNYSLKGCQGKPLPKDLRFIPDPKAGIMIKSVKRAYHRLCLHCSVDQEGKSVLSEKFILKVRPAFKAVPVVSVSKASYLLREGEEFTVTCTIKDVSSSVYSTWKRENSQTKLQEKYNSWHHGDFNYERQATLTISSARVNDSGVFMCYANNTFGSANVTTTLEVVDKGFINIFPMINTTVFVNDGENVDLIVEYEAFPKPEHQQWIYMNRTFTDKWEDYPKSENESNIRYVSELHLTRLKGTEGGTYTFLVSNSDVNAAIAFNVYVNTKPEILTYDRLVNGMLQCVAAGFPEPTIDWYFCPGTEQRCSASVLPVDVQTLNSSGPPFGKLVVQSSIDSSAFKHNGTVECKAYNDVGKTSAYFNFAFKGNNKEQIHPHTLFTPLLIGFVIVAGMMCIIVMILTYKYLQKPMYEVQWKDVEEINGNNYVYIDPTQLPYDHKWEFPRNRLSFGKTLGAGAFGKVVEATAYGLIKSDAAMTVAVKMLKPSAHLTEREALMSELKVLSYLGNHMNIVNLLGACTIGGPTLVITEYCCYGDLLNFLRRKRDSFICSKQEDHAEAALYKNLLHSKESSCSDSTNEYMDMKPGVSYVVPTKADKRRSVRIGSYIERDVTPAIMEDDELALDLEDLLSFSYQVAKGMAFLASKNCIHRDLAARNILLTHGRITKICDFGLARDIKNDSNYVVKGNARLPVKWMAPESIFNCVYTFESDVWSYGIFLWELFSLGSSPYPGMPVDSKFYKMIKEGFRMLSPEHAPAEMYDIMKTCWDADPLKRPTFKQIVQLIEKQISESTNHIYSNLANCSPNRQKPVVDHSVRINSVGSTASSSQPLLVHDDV
# Chain of Serine/threonine-protein kinase BRSK2 (Homo sapiens) (Q8IWQ3 whole entry): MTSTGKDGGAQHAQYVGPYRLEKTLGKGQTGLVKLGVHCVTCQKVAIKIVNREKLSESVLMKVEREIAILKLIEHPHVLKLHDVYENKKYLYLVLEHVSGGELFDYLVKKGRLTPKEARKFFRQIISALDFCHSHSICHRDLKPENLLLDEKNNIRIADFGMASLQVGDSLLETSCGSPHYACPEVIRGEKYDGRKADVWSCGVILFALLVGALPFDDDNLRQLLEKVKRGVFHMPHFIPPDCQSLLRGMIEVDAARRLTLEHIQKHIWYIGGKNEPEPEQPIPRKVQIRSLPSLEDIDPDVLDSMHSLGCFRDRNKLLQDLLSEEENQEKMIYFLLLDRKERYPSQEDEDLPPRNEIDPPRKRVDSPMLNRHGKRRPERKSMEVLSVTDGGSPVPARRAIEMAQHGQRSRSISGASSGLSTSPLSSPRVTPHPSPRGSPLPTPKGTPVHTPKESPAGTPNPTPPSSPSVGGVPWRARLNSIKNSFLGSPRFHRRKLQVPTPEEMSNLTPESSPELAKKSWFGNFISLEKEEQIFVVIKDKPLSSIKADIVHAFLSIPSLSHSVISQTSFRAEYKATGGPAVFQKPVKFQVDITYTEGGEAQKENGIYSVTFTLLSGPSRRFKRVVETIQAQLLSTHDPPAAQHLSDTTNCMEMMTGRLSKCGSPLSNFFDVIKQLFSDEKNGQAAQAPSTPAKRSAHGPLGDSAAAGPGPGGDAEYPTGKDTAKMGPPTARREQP
# Chain of Mitogen-activated protein kinase kinase kinase 11 (Homo sapiens) (Q16584 whole entry, looked up): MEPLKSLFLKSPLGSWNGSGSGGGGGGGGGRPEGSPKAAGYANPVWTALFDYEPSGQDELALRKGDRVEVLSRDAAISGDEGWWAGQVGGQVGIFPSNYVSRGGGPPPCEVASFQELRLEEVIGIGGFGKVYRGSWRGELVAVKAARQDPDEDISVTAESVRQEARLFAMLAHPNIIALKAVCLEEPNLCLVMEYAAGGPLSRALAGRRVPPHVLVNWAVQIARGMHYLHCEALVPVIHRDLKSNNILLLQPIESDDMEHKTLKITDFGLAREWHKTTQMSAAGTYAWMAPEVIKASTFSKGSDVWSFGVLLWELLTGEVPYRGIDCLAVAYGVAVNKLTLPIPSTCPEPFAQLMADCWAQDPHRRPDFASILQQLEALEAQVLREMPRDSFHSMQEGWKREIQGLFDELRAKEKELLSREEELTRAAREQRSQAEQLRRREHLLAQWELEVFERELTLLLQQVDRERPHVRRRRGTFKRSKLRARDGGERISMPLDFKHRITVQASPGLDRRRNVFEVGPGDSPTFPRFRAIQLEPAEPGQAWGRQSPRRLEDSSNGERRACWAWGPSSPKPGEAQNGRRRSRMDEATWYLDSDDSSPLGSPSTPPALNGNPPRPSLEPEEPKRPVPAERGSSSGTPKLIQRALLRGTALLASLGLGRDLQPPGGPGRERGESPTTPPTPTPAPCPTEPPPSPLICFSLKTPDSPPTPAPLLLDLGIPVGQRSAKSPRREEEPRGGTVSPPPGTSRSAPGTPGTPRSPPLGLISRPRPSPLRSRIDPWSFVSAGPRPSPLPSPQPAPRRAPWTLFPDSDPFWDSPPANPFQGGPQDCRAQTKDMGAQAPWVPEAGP
# Chain of Leukocyte tyrosine kinase receptor (Homo sapiens) (P29376 whole entry): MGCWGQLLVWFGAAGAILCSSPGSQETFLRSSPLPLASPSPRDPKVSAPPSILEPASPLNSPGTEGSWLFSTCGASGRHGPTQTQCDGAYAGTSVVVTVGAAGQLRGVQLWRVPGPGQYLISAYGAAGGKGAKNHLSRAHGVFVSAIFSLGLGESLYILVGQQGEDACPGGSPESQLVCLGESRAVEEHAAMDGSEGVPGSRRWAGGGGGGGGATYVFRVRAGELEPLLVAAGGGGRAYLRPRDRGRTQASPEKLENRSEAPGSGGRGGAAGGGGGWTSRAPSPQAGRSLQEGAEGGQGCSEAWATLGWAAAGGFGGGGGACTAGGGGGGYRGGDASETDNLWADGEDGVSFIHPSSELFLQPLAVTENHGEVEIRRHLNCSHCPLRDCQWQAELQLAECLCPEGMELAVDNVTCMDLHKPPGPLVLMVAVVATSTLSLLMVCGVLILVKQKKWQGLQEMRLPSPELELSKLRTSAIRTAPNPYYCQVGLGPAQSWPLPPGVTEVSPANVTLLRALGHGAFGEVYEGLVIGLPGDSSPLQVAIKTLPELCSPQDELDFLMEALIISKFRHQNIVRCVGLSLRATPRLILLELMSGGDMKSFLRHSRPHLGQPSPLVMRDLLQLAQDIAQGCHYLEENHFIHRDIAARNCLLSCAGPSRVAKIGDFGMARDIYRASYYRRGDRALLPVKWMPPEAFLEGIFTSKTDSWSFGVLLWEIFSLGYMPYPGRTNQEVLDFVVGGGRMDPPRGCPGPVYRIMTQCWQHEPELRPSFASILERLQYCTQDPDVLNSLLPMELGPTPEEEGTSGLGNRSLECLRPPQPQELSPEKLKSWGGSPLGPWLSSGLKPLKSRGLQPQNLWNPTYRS
# Chain of Kappa-type opioid receptor (Homo sapiens) (P41145 whole entry): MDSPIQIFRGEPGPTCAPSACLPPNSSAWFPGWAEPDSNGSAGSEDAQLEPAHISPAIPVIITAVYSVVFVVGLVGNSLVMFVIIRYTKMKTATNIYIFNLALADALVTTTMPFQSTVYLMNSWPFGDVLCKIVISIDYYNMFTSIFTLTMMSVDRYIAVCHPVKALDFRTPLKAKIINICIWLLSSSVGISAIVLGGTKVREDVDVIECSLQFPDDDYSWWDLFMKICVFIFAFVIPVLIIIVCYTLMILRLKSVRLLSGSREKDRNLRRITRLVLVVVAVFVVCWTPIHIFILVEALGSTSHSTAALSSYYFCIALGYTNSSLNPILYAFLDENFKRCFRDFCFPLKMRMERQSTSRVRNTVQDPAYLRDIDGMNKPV
smiles,measurement,setting,value
COc1cc(-c2cn([C@H]3CCc4c(F)cccc4N(CC(F)(F)F)C3=O)nn2)ccc1-n1cnc(C)c1,IC50,[1],0.131 µM (active)
same,residual activity,[2],100%
same,residual activity,[3],96%
same,residual activity,[4],100%
same,residual activity,[5],100%
same,residual activity,[6],92%
same,residual activity,[7],100%
same,residual activity,[8],71%
same,residual activity,[9],100%
same,residual activity,[10],100%
same,residual activity,[11],100%
same,residual activity,[12],100%
same,residual activity,[13],100%
same,residual activity,[14],100%
same,residual activity,[15],100%
same,residual activity,[16],100%
same,residual activity,[17],97%
same,residual activity,[18],89%
same,residual activity,[19],100%
same,residual activity,[20],99%
same,residual activity,[21],100%
same,residual activity,[22],100%
same,residual activity,[23],100%
same,residual activity,[24],100%
same,residual activity,[25],100%
same,residual activity,[26],100%
same,residual activity,[27],94%
same,residual activity,[28],100%
same,residual activity,[29],100%
same,residual activity,[30],100%
same,residual activity,[31],100%
same,residual activity,[32],100%
same,residual activity,[33],100%
same,residual activity,[34],90%
same,residual activity,[35],100%
same,residual activity,[36],72%
same,residual activity,[37],96%
same,residual activity,[38],100%
same,residual activity,[39],100%
same,residual activity,[40],100%
same,residual activity,[41],100%
same,residual activity,[42],100%
same,residual activity,[43],100%
same,inhibition,[44],7.19%
same,inhibition,[45],38.3%
COc1cc(-c2cn([C@H]3CCc4ccccc4N(CC(F)(F)F)C3=O)nn2)ccc1-n1ccc(C)n1,IC50,[1],> 10 µM (not active)
same,residual activity,[2],96%
same,residual activity,[3],97%
same,residual activity,[4],78%
same,residual activity,[5],97%
same,residual activity,[6],81%
same,residual activity,[7],97%
same,residual activity,[8],80%
same,residual activity,[9],100%
same,residual activity,[10],90%
same,residual activity,[11],100%
same,residual activity,[12],100%
same,residual activity,[13],93%
same,residual activity,[14],100%
same,residual activity,[15],100%
same,residual activity,[16],99%
same,residual activity,[17],100%
same,residual activity,[18],85%
same,residual activity,[19],98%
same,residual activity,[20],80%
same,residual activity,[21],86%
same,residual activity,[22],82%
same,residual activity,[23],100%
same,residual activity,[24],87%
same,residual activity,[25],96%
same,residual activity,[26],96%
same,residual activity,[27],92%
same,residual activity,[28],100%
same,residual activity,[29],100%
same,residual activity,[30],100%
same,residual activity,[31],100%
same,residual activity,[32],100%
same,residual activity,[33],100%
same,residual activity,[34],82%
same,residual activity,[35],100%
same,residual activity,[36],65%
same,residual activity,[37],100%
same,residual activity,[38],96%
same,residual activity,[39],85%
same,residual activity,[40],78%
same,residual activity,[41],97%
same,residual activity,[42],84%
same,residual activity,[43],85%
same,inhibition,[44],13.6%
same,inhibition,[45],9.04%
